From US20210330611A1, “THERAPY FOR NEUROLOGICAL DISEASES/DISORDERS” (priority 2020, published 2021)
Read-outs that look alike come from different tables or passages of the source.

Legend:
[1] = test system: fibrin-induced microglia activation; test: Image-based assay of fibrin-induced microglia activation (HTS and dose response); type: cell-based, rat; settings: for inhibition at 10 µM / Fibrin % inhibition: primary microglia HTS; for inhibition at 10 µM: read-out: Fibrin % inhibition
primary rat microglia [2] = test: Cell toxicity (dead cells, size <150 μm2) in coated fibrin (cFib) assay; settings: primary microglia HTS;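 note: share of dead cells sized under 150 µm2 at 10 µM in fibrin-stimulated microglia HTS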
[3] = test system: fibrin- and LPS-induced microglia activation; test: cells; type: cell-based, rat
[4] = test system: LPS-induced microglia activation; test: Image-based assay of LPS-induced microglia activation (HTS and dose response); type: cell-based, rat; settings: for inhibition at 10 µM / LPS % inhibition: primary microglia HTS; for inhibition at 10 µM: read-out: LPS % inhibition
primary rat microglia [5] = test: Cell toxicity (dead cells, size <150 μm2) in LPS assay; settings: primary microglia HTS
[6] = Rattus norvegicus, Microglia, 10 μM, fibrin-stimulated, cell size >800 μm^2 as marker of activation
[7] = 10 μM, fibrin assay, cell size <150 μm^2 as marker of toxicity
[8] = HTS of 1907 compounds, quadrant by fibrin and LPS inhibition
[9] = Rattus norvegicus, Microglia, 10 μM, LPS-stimulated, cell size >800 μm^2 as marker of activation
[10] = 10 μM, LPS assay, cell size <150 μm^2 as marker of toxicity
[11] = 10 μM, fibrin-stimulated, cell size >800 μm^2 as marker of activation
[12] = 10 μM, LPS-stimulated, cell size >800 μm^2 as marker of activation
[13] = Rattus norvegicus, Microglia, fibrin stimulation, increased cell size (>800 μm^2) as marker of activation
[14] = fibrin stimulation, decreased size (<150 μm^2) as marker of toxicity
[15] = quadrant by fibrin and LPS inhibition in HTS of 1907 compounds
[16] = Rattus norvegicus, Microglia, 48 h, LPS stimulation, increased cell size (>800 μm^2) as marker of activation
[17] = LPS stimulation, decreased size (<150 μm^2) as marker of toxicity

SMILES | inhibition at 10 µM [1, 6] | Fibrin % cell toxicity (primary rat microglia [2]; [7]) | Quadrant (FIG. 5b) [3, 8] | inhibition at 10 µM [4, 9] | LPS % cell toxicity (primary rat microglia [5]; [10]) | also measured
Cc1nnc(NS(=O)(=O)c2ccc(N)cc2)s1 [Sulfamethizole] | -3% | 1% | Q4 | 16% | 0% | 
COc1ccc(NS(=O)(=O)c2ccc(N)cc2)nn1 [Sulfamethoxypyridazine] | 21% | 1% | Q4 | 15% | 0% | 
COc1cc(NS(=O)(=O)c2ccc(N)cc2)ncn1 [Sulfamonomethoxine] | 38% | 1% | Q4 | 19% | 1% | 
CC(=O)Nc1ccc(S(=O)(=O)Nc2ccc([N+](=O)[O-])cc2)cc1 [Sulfanitran] | 10% | 1% | Q4 | 18% | 0% | 
Nc1ccc(S(=O)(=O)Nc2ccnn2-c2ccccc2)cc1 [Sulfaphenazole] | -4% | 1% | Q4 | 14% | 0% | 
O=C1C(CC[S+]([O-])c2ccccc2)C(=O)N(c2ccccc2)N1c1ccccc1 (centres unmarked) [Sulfinpyrazone] | -6% | 1% | Q4 | 13% | 1% | 
CC(=O)N(c1onc(C)c1C)S(=O)(=O)c1ccc(N)cc1 [Sulfisoxazole Acetyl] | -3% | 1% | Q4 | 17% | 1% | 
Cc1noc(NS(=O)(=O)c2ccc(N)cc2)c1C [Sulfisoxazole] | -11% | 0% | Q4 | 6% | 0% | 
CC1=C(CC(=O)O)c2cc(F)ccc2/C1=C\c1ccc(S(C)(=O)=O)cc1 [Sulindac Sulfone] |  | 1% | Q4 |  | 0% | Fibrin % inhibition [1, 11]: −27%; LPS % inhibition [4, 12]: 3%
COc1cc(O)c(C(=O)c2ccccc2)cc1S(=O)(=O)O [Sulisobenzone] | -19% | 0% | Q4 | -2% | 0% | 
CNS(=O)(=O)Cc1ccc2[nH]cc(CCN(C)C)c2c1 [Sumatriptan] | -7% | 1% | Q4 | 8% | 0% | 
Cc1ccc(C(=O)Nc2ccc(S(=O)(=O)O)c3cc(S(=O)(=O)O)cc(S(=O)(=O)O)c23)cc1NC(=O)c1cccc(NC(=O)Nc2cccc(C(=O)Nc3cc(C(=O)Nc4ccc(S(=O)(=O)O)c5cc(S(=O)(=O)O)cc(S(=O)(=O)O)c45)ccc3C)c2)c1 [Suramin] | -5% | 0% | Q4 | 18% | 0% | 
CCCCC1(COC(=O)CCC(=O)O)C(=O)N(c2ccccc2)N(c2ccccc2)C1=O [Suxibuzone] | 25% | 1% | Q4 | 23% | 0% | 
CNCC(O)c1ccc(O)cc1 (centres unmarked) [Synephrine] | -16% | 0% | Q4 | 12% | 0% | 
C=CC[C@@H]1/C=C(\C)C[C@H](C)C[C@H](OC)[C@H]2O[C@@](O)(C(=O)C(=O)N3CCCC[C@H]3C(=O)O[C@H](/C(C)=C/[C@@H]3CC[C@@H](O)[C@H](OC)C3)[C@H](C)[C@@H](O)CC1=O)[C@H](C)C[C@@H]2OC [Tacrolimus] | 27% | 1% | Q4 | 14% | 0% | 
CN1CC(=O)N2[C@H](c3ccc4c(c3)OCO4)c3[nH]c4ccccc4c3C[C@@H]2C1=O [Tadalafil] | -1% | 1% | Q4 | 16% | 0% | 
CCOc1ccccc1OCCN[C@H](C)Cc1ccc(OC)c(S(N)(=O)=O)c1.Cl [Tamsulosin Hydrchloride] |  | 0% | Q4 |  | 0% | Fibrin % inhibition [1, 11]: −31%; LPS % inhibition [4, 12]: 12%
CCOc1ccccc1OCCN[C@H](C)Cc1ccc(OC)c(S(N)(=O)=O)c1 [Tamsulosin] |  |  |  |  |  | inhibition at 10 µM [1, 13]: 20%; Fibrin % cell toxicity (primary rat microglia [2]; [14]): 1%; Quadrant (FIG. 5b) [3, 15]: Q1; inhibition at 10 µM [4, 16]: 59%; LPS % cell toxicity (primary rat microglia [5]; [17]): 2%
O=C(OC[C@H]1O[C@@H](OC(=O)c2cc(O)c(O)c(OC(=O)c3cc(O)c(O)c(O)c3)c2)[C@H](OC(=O)c2cc(O)c(O)c(OC(=O)c3cc(O)c(O)c(O)c3)c2)[C@@H](OC(=O)c2cc(O)c(O)c(OC(=O)c3cc(O)c(O)c(O)c3)c2)[C@@H]1OC(=O)c1cc(O)c(O)c(OC(=O)c2cc(O)c(O)c(O)c2)c1)c1cc(O)c(O)c(OC(=O)c2cc(O)c(O)c(O)c2)c1 [Tannic acid, reference compound] |  |  |  |  |  | IC50 ([1]; Rattus norvegicus, Microglia, Table 7, read-out: fib_IC50): 4.96 µM; inhibition at 10 µM [1, 13]: -60%; Fibrin % cell toxicity (primary rat microglia [2]; [14]): 0%; Quadrant (FIG. 5b) ([3]; Table 2, screen at 10 μM): Q4; Activity ([3]; Table 7, fib = fibrin, LPS, tox = toxicity): fib/LPS; Quadrant (FIG. 5b) [3, 15]: Q4; inhibition at 10 µM [4, 16]: 32%; IC50 ([4]; Rattus norvegicus, Microglia, Table 7, read-out: LPS_IC50): 4.38 µM; LPS % cell toxicity (primary rat microglia [5]; [17]): 1%
CCCCC/C=C\CCC(=O)N[C@H]1[C@H](Oc2c3cc4cc2Oc2ccc(cc2Cl)[C@@H](O[C@@H]2O[C@H](CO)[C@@H](O)[C@H](O)[C@H]2NC(C)=O)[C@@H]2NC(=O)[C@H](NC(=O)[C@@H]4NC(=O)[C@H]4NC(=O)[C@@H](Cc5ccc(c(Cl)c5)O3)NC(=O)[C@H](N)c3ccc(O)c(c3)Oc3cc(O)cc4c3)c3ccc(O)c(c3)-c3c(O[C@H]4O[C@H](CO)[C@@H](O)[C@H](O)[C@@H]4O)cc(O)cc3[C@@H](C(=O)O)NC2=O)O[C@H](CO)[C@@H](O)[C@@H]1O [Teicoplanin [a(2-1) Shown]] |  | 1% | Q4 |  | 0% | Fibrin % inhibition [1, 11]: 43%; LPS % inhibition [4, 12]: 20%
CCCc1nc2c(C)cc(-c3nc4ccccc4n3C)cc2n1Cc1ccc(-c2ccccc2C(=O)O)cc1 [Telmisartan] | -24% | 0% | Q4 | -2% | 0% | 
COc1ccc2[nH]c([S+]([O-])Cc3ncc(C)c(OC)c3C)nc2n1 (centres unmarked) [Tenatoprazole] | -17% | 1% | Q4 | 9% | 0% | 
C[C@H](Cn1cnc2c(N)ncnc21)OCP(=O)(O)O [Tenofovir] |  | 0% | Q4 |  | 0% | Fibrin % inhibition [1, 11]: −10%; LPS % inhibition [4, 12]: 17%
